US10512624B2, “Long-chain amphipathic dicarboxylic acids for treatment of diabetes type-1” (Syndromex Ltd., priority 2016, dated 2019)

Legend:
STZ diabetic rats = test: Anti-diabetic efficacy in streptozotocin (STZ) diabetic rats (FBG, IPGTT, IPITT, fluid balance, insulin/glucagon content); type: in vivo, rat
Experimental: Male Sprague-Dawley (SD) rats weighing 250-275 gr were fed ad libitum (Harlan Teklad 2018), had free access to water, and were kept on a 12:12 h light:dark cycle. Experimental type 1 diabetes (T1D) was induced in overnight fasted rats by a single intra-peritoneal injection of streptozotocin (STZ, 60 mg/kg body weight, Sigma Aldrich) freshly prepared in 0.1 M of cold citrate buffer (pH 4.5), followed by oral 10% glucose solution for the next 24 hours to overcome STZ-induced acute hypoglycemia. STZ diabetic rats (defined as having a fasting blood glucose (FBG) level higher than 300 mg/dl) were selected for further studies.
(§1) SHAM (control) rats were injected with 0.1 M of cold citrate buffer (pH 4.5). STZ diabetic or SHAM rats were dosed twice daily by gavage (orally) with 1% CMC (Sigma Aldrich C5678), or with HOOC—C(CH3)2—(CH2)12—C(CH3)2—COOH (2,2,15,15-tetramethylhexadecane-1,16-dioic acid) also termed herein “MEDICA16αα”, “Medica16αα” or M16αα(15 mg/kg body weight) suspended in 1% CMC, or injected intraperitoneal (i.p.) with Neutral Protamine Hagedorn (NPH) insulin (3 u/kg body weight b.i.d), as indicated.
(§2) Administering a combination of Medica16αα and insulin was performed by treating STZ diabetic rats (FBG >300 mg/dl) with oral MEDICA16αα(15 mg/kg b.i.d) for five consecutive days, then MEDICA16αα-responsive rats were further treated with MEDICA16αα(15 mg/kg b.i.d) for 10 additional consecutive days (“STZ/MEDICA Res”), and MEDICA16αα non-responsive rats (FBG >250 mg/dl) were further treated for 10 additional consecutive days with either insulin Neutral Protamine Hagedorn (NPH) (3 u/kg b.i.d subcutaneously) (“STZ/NPH”), or with insulin NPH (3 u/kg b.i.d subcutaneously in combination with oral MEDICA16αα(15 mg/kg b.i.d) (“STZ/MEDICA NPH”).
(§3) Tail vein FBG was verified daily by a glucometer (Glucometer®, Accu-Check® Performa, Roche Diagnostics). Urine secretion, food and water consumption were measured in standard metabolic cages (Tecniplast™ Metabolic Cage Systems for Rodents) for 48 hour periods. Samples were collected and recorded every 12 hour.
Overnight fasted rats were injected i.p (1 gr glucose/kg bw) with 20% dextrose solution (Teva Medical). Tail vein blood was sampled on 0, 30, 60, 90 and 120 minutes following glucose injection.
Fasted rats (5 hours fast) were injected i.p (2 u/kg bw) with HumulinR insulin (Eli Lilly). Tail blood glucose levels were measured by glucometer at 0, 15, 30, 60, and 120 min following insulin injection.
Pancreas and plasma insulin and glucagon content were determined by insulin (Millipore, Cat #RI-13K) and glucagon (Millipore, Cat # GL-32K) radioimmunoassay (RIA) kits. cAMP levels were measured by cAMP kit (Arbor Assays, DetectX Cat # K019-H1).

[1] = test system: SHAM (control) non-diabetic rats; test: Fasting blood glucose in SHAM (control) non-diabetic rats; type: in vivo, rat; conditions: oral 15 mg/kg b.i.d
Experimental: as §1, §3

Soleus GLUT4 = test: Activation of Soleus GLUT4 in STZ diabetic rats; type: in vivo, rat
Experimental: as §2
Muscle tissue was fixed with 4% buffered formaldehyde for 4 hours. Paraffin sections (5 μm) were rehydrated and antigen retrieved in citrate buffer using a Biocare pressure cooker, followed by 5 minutes blocking in peroxidase and 10 minutes of protein block (Cas-Block). The sample was incubated with anti-GLUT4 antibody (AbCam ab65267), followed by polyclonal anti-mouse IgG. DAB substrate buffer was then added to achieve coloration. The specimens were subsequently dehydrated with ethanol, cleared with xylene and then mounted on glass cover slips. Digital images were obtained using Nikon Eclipse TE-2000E microscope equipped with Olympus DP70 camera. Image analysis was carried out using ImageJ software. […]
Protein lysates were prepared in sodium dodecyl sulfate (SDS) sample buffer (62 mM Tris (pH 6.8), 2.3% SDS, […] mercaptoethanol, 10% glycerol), and were subjected to SDS-PAGE, electro-transferred onto cellulose nitrate membranes (Schleicher & Schuell) and probed with the indicated first antibody, followed by HRP-labeled second antibody. Protein concentration was determined by BCA (Thermo Scientific). Bands were detected by ECL, and the intensity of individual bands was determined by densitometry using ImageJ 1.48 v software.

NOD mice [2] = test: Prevention of overt type 1 diabetes (T1D) in NOD mice; type: in vivo, mouse
Experimental: NOD/LtJ mice (Harlan Laboratories) were bred in-house under pathogen-free conditions. Female mice (3-week old) were fed ad libitum from weaning on with standard chow (Harlan Teklad 2018), or with MEDICA16αα diet (0.04% (w/w) MEDICA16αα mixed in Teklad 2018, yielding a dose of 40 mg MEDICA16αα per kg body weight per day). Mice were monitored weekly for body weight and food consumption. Tail vein blood glucose was verified weekly from week 10th on, on a set day and hour. Mice were considered diabetic if presenting non-fasting blood glucose levels >300 mg/dl for 3 consecutive days. Diabetic mice were euthanized, and blood and tissues were sampled for further studies.

NOD mice [3] = test: IPGTT in pre-diabetic NOD mice; type: in vivo, mouse; conditions: 14-week and 24-week old NOD mice
Experimental: Overnight fasted NOD mice were injected i.p (2 gr/kg bw) with standard 20% dextrose solution. Tail vein blood was sampled on 0, 15, 30, 60, 90 and 120 minutes. Blood glucose was measured by glucometer. Plasma insulin prior to and 30 min following glucose injection was measured using Ultrasensitive Mouse Insulin ELISA kit (Crystal Chem).

## CC(C)(CCCCCCCCCCCCC(C)(C)C(=O)O)C(=O)O [MEDICA16αα, 2,2,15,15-tetramethylhexadecane-1,16-dioic acid]
STZ diabetic rats; STZ diabetic rats, stand-alone treatment
  pancreatic and/or plasma insulin and glucagon content: not accounted for by significant increase in pancreatic and/or plasma insulin, neither by significant decrease in glucagon content
STZ diabetic rats; STZ/MEDICA Res rats, stand-alone
  fluid consumption and excretion: partial decrease
STZ diabetic rats; STZ/MEDICA Res rats, stand-alone 15 mg/kg b.i.d
  blood glucose level in i.p glucose tolerance test (IPGTT): amelioration in blood glucose level
STZ diabetic rats; oral 15 mg/kg b.i.d, 10 consecutive days, stand-alone (no insulin), all-or-none response
  STZ diabetic rats in which FBG was normalized (FBG<250 mg/dL): about 40%
STZ diabetic rats; oral 15 mg/kg b.i.d, stand-alone
  treated STZ diabetic rats that remained non responsive (FBG >250 mg/dl): 60%
[1]
  hypoglycemia: did not result in hypoglycemia
Soleus GLUT4
  soleus AKT (phospho-Akt(Ser473)): activated
  soleus AMPK (phospho-ACC(Ser79)): activated
  soleus phospho-AS160(Thr642): increase in phosphorylated AS160(Thr642)
NOD mice [2]; NOD mice, 40 mg/kg per day in feed
  decrease in body weight gain: 40%
NOD mice [2]; oral in feed 40 mg/kg per day from weaning, 21 weeks (until week 26), 32% in non-treated group
  NOD mice in which development of T1D was delayed or prevented: 71%
NOD mice [3]
  pre-diabetic IPGTT profile: normalizing
NOD mice [3]; first 30 min of IPGTT
  glucose-stimulated plasma insulin: remained unaffected
